Experimental data taken from ChEMBL document CHEMBL1201862, “PubChem BioAssay data set” (2004).
Where a name gives a salt, the structure may show the parent alone. Activity calls are given as the source filed them.

Key:
[1] = Dose-response inhibition of insulin secretion in a rat insulinoma line at 5 mM glucose (AID 1117331); type: functional, cell-based; conditions: INS-1E
[2] = inhibitors of firefly luciferase expression or activity, dose response, H4 neuroglioma cells, luminescence (AID 1990); type: functional, cell-based
[3] = test system: Streptococcus sp. 'group A'; experiment: growth inhibition of control SK(-) GAS strain, dose response, counter-screen for streptokinase expression inhibitor project, luminescence, kanamycin, BacTiterGlo, confirmation (AID 1900); type: functional, organism-based
[4] = Luminescence Cell-Based Dose Response HTS to Identify Inhibitors of 5'UTR Stem-Loop Driven Prion Protein mRNA Translation in H4 Neuroglioblastoma Cells. [Related pubchem assays: 1827 (Project Summary), 1813 (Primary HTS)]; type: functional
[5] = inhibitors of SNCA 5'UTR-driven reporter translation, confirmation, H4 neuroglioma cells, luminescence (AID 1988); type: functional, cell-based
[6] = inhibitors of intracellular T. cruzi replication, confirmation, NIH3T3 host cells, beta-gal luminescence (AID 2044); type: functional, cell-based;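 also: intracellular parasites grown in NIH/3T3 mouse fibroblasts as host cells; luminescent beta-galactosidase reporter signal from transgenic T. cruzi replicating inside host cells; inhibitors lower the luminescence signal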
[7] = cytotoxicity toward NIH3T3 fibroblasts, dose response, counter-screen, cell-based, ATP luminescence, mouse fibroblasts (AID 2010); type: functional;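 also: cells exposed to compound for about 90 hours before reading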
Streptococcus = experiment: Group A Streptococcus viability loss, dose response, counter-screen for streptokinase expression inhibitor project, luminescence, BacTiterGlo (AID 1915); type: functional, organism-based;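 also: potency for reduction of bacterial viability or growth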
[8] = molecular target: T1, Replicative DNA helicase DnaB (Mycobacterium tuberculosis, UniProt P9WMR3); experiment: DnaB intein splicing inhibitors, dose response, biochemical, cell-free fluorescence (AID 449749); type: functional
T1 sequence (P9WMR3 whole entry): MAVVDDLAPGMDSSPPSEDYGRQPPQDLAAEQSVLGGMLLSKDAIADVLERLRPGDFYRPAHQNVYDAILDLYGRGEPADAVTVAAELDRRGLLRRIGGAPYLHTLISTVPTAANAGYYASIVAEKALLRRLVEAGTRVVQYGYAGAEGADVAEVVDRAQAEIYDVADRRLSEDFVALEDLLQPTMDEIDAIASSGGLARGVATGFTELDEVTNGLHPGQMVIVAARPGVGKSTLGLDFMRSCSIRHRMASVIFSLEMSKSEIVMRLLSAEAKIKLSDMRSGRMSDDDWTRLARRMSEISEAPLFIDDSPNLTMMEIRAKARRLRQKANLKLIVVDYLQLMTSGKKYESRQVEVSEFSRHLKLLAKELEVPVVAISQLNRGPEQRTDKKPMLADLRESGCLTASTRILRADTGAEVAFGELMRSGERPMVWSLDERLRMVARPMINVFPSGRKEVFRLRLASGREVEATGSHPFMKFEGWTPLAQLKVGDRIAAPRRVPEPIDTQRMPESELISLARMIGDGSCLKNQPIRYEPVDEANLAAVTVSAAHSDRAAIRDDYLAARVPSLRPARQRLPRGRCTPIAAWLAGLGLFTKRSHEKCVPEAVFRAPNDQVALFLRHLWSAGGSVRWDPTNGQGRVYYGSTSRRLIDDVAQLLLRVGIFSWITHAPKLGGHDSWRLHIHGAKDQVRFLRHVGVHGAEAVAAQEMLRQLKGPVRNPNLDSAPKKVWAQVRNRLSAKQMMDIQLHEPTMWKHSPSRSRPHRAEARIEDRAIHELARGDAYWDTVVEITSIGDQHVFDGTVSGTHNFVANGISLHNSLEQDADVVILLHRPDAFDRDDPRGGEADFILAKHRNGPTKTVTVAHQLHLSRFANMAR

[9] = molecular target: T2, Apoptotic protease-activating factor 1 (Homo sapiens, UniProt O14727); type: functional
T2 sequence (O14727 whole entry): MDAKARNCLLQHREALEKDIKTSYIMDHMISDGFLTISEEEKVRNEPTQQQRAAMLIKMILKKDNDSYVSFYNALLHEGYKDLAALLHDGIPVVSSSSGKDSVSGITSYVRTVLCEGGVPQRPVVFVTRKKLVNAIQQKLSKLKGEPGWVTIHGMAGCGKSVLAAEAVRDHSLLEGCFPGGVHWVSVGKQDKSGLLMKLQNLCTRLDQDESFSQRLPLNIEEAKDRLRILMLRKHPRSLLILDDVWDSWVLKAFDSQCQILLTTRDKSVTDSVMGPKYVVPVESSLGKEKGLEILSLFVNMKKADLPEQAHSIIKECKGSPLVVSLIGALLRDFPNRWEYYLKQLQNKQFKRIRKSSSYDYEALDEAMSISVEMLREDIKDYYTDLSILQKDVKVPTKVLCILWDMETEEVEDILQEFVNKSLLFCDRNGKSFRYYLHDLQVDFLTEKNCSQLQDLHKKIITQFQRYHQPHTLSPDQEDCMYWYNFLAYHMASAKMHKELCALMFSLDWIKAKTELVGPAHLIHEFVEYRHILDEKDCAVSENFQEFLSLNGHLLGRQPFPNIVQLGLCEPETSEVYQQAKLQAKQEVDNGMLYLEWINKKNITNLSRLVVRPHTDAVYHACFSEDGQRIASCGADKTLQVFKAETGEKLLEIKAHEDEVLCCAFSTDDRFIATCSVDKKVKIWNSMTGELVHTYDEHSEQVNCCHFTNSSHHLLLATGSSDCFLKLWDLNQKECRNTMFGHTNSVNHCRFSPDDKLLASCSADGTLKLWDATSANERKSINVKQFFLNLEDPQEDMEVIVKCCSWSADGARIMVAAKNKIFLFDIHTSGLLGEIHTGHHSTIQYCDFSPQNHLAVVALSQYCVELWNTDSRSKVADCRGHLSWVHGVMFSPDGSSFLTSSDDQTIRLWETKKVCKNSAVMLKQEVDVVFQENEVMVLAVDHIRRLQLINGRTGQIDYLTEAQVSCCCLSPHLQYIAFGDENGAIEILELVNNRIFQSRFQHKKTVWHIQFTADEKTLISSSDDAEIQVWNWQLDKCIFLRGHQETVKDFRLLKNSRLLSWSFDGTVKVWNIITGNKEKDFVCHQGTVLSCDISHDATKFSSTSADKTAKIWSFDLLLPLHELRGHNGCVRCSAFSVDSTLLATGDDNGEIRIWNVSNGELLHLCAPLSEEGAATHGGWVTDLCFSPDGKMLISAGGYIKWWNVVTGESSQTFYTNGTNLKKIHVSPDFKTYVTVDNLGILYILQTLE

Protein RecA = molecular target: T3, Protein RecA (Mycobacterium tuberculosis, UniProt P9WHJ3); experiment: Fluorescence Cell-Free Homogeneous Dose Retest to Identify Inhibitors of RecA-Intein Splicing Activity. [Related pubchem assays (depositor defined):AID2097, AID2223, AID489010, AID492950]; type: functional
T3 sequence (P9WHJ3 whole entry): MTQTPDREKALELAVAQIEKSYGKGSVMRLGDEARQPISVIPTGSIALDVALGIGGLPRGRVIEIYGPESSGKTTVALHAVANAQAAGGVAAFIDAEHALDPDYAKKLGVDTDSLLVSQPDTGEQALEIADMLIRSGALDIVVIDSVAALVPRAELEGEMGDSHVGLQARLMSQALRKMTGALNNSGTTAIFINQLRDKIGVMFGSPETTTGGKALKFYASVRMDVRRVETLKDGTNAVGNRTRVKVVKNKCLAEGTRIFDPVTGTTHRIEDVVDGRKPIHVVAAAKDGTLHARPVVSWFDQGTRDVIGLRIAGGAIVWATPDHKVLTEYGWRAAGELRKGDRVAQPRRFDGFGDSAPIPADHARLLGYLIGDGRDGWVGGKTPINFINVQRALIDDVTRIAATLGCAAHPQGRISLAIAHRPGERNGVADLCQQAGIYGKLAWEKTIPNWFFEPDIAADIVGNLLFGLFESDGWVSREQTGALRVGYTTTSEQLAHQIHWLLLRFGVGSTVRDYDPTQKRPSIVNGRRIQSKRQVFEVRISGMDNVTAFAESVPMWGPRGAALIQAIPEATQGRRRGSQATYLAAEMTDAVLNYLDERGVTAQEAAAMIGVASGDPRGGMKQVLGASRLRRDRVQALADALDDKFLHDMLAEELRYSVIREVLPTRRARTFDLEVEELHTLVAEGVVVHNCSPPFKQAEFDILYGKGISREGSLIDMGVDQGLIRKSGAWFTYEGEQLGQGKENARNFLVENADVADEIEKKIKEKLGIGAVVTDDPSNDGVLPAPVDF

[10] = Artemis endonuclease inhibitor potency, dose response, biochemical, fluorescence intensity (AID 720701); type: functional;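 also: Artemis endonuclease enzyme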
[11] = fibronectin fibrillogenesis inhibitors in fibroblasts, dose response, AH1F cells, Alexa488-fibronectin fluorescence, cherry-pick, set 2 (AID 1117283); type: functional, cell-based
[12] = molecular target: NAD-dependent protein deacylase sirtuin-5, mitochondrial (Homo sapiens, UniProt Q9NXA8); experiment: SIRT5 desuccinylase inhibitors, dose response, biochemical, fluorescence imaging, cherry-pick, set 5 (AID 720591);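 also: desuccinylation of succinyl peptide AMC substrate read as fluorescence after trypsin release; potency of inhibitors that lower fluorescence and may act on trypsin instead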
[13] = half-maximal inhibitory concentration for glucagon-like peptide-1 release, STC-1 cell line, dose-response (AID 1117345); type: functional, cell-based
[14] = Glucagon-like peptide 1 release potency, NCI-H716 cell line, dose-response, half-maximal inhibitory concentration (AID 1117344); type: functional, cell-based
[15] = Concentration-dependent survival of SW480 colon cancer line, luminescence detection with CellTiter-Glo, half-maximal inhibitory concentration (AID 1117338); type: functional
[16] = RKO cell viability reduction, dose response, CellTiter-Glo luminescence (AID 1117322); type: functional
[17] = cytotoxicity toward HCT116 cells – cell-based, CellTiter-Glo luminescence, IC50, dose response (AID 1117332); type: functional; conditions: HCT-116
[18] = SNU-C1 cell viability reduction, dose response, CellTiter-Glo luminescence (AID 1117323); type: functional, cell-based
[19] = cytotoxicity toward Colo320 cells – cell-based, CellTiter-Glo luminescence, IC50, dose response (AID 1117334); type: functional; conditions: COLO 320
[20] = cytotoxicity toward HT-29 cells – cell-based, CellTiter-Glo luminescence, IC50, dose response (AID 1117330); type: functional
[21] = CellTiter-Glo luminescent dose response of DLD-1 viability loss (AID 1117352); type: functional
[22] = HCT116 cell viability decrease, GSK3B pretreatment – CellTiter-Glo, IC50, dose response (AID 1117339); type: functional; conditions: HCT-116
Large T antigen = Large T antigen (Simian virus 40, UniProt P03070); type: functional, Betapolyomavirus macacae;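 also: Confirmatory-stage PubChem screen for compounds that inhibit SV40 T antigen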
Protein Tat = Protein Tat (Human immunodeficiency virus type 1 group M subtype B (isolate HXB2)(HIV-1), UniProt P04608); type: functional;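 also: tat binding to TAR RNA read out by fluorescence polarization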
Protein Tat, sequence (P04608 whole entry): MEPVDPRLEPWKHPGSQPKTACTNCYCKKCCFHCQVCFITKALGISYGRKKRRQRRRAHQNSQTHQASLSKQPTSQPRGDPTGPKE

Large T antigen, sequence (P03070 whole entry): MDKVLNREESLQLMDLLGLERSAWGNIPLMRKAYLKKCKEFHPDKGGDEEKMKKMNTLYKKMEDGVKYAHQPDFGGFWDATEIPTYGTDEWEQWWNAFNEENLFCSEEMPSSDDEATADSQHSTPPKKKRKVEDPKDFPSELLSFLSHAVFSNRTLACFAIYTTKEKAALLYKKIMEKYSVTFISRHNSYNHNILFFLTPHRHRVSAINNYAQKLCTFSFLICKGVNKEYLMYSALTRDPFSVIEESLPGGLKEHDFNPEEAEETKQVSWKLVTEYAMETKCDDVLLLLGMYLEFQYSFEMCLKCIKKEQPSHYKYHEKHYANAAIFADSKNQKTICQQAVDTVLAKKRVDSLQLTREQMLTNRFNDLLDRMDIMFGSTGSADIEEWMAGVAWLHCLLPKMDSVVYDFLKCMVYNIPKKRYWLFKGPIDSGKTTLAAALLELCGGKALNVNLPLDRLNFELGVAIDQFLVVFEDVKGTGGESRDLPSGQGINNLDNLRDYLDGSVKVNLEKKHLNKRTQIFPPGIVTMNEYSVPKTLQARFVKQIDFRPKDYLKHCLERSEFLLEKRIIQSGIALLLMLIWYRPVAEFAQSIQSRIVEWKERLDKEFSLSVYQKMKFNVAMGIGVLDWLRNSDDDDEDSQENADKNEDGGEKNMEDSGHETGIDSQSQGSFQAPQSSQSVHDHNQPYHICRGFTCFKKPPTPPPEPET
NAD-dependent protein deacylase sirtuin-5, mitochondrial, sequence (Q9NXA8 whole entry): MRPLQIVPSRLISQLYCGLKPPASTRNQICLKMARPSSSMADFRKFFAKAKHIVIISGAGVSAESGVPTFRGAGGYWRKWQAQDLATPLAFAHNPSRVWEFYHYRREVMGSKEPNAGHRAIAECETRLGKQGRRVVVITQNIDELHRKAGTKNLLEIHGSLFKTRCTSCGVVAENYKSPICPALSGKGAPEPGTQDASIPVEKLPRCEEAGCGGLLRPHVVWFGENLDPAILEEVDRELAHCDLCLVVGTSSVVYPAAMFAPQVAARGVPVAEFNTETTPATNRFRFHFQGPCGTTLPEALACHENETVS

## CCN(CC)CCOC(=O)C(C)(c1ccccc1)c1ccccc1 [APROFENE]
[1]
  IC50: > 11.1 µM (inactive)

## O=C1c2ccccc2C(=O)c2c1oc(C(F)(F)F)c2C(=O)c1ccccc1
[2]
  EC50: 6.73 µM (active)
[3]
  EC50: 2.11 µM (active)
[4]
  EC50: 7.26 µM (active)
[5]
  EC50: 3.37 µM (active)
[6]
  EC50: 1.76 µM (active)
[7]
  EC50: > 60 µM (not active)
Streptococcus
  EC50: 2.41 µM (active)
[8]
  AC50: > 380 µM (inconclusive)
[9]
  IC50: 4.72 µM (active)
Protein RecA
  EC50: 15.3 µM (active)
[10]
  IC50: > 20 µM (inactive)

## C[C@H](O)C#Cc1ccc2c(c1)O[C@H](CN(C)C)[C@@H](C)CN([C@@H](C)CO)S2(=O)=O
[11]
  AC50: > 70 µM (inactive)

## COc1ccc(OCC(=O)Nc2ccc(C(=O)Nc3ccccc3C(=O)O)cc2)cc1
[12]
  AC50: > 30 µM (inactive)

## Cc1cc(O)c2c(O)c3c(O)cccc3cc2c1
[1]
  IC50: > 33.3 µM (inactive)
[13]
  IC50: 11.3 µM (inactive)
[14]
  IC50: > 20 µM (inactive)

## COCC(=O)O[C@]1(CCN(C)CCCc2nc3ccccc3[nH]2)CCc2cc(F)ccc2[C@@H]1C(C)C [MIBEFRADIL DIHYDROCHLORIDE]
[15]
  IC50: 4.54 µM (active)
[16]
  IC50: 6.72 µM (inactive)
[17]
  IC50: 12.4 µM (inactive)
[18]
  IC50: 5.44 µM (inactive)
[13]
  IC50: 8.24 µM (inactive)
[19]
  IC50: 10.5 µM (inactive)
[20]
  IC50: 3.08 µM (active)
[21]
  IC50: 7.26 µM (inactive)
[22]
  IC50: 5.33 µM (inactive)
[14]
  IC50: > 40 µM (inactive)

## NC(=O)c1ccc(N2CCN(c3ccc(O)cc3)CC2)c([N+](=O)[O-])c1
Large T antigen
  IC50: 8.31 µM (active)
Protein Tat
  IC50: > 100 µM (active)
